Assay results: patent US5962501A, “Enantiomer of carbazole derivative as 5-HT1-like agonists” (SmithKline Beecham, p.l.c., priority 1992, dated 1999)

Target: T1, 5-HT1 -like receptor (Oryctolagus cuniculus, UniProt P49144)
T1 construct: Arteries were then cut into ring segments (ca 4-5 mm wide) and set up for recording of isometric tension; from tissue; host or cells: rabbit basilar artery rings, endothelium removed
Assay: 5-HT1-like receptor screen, rabbit isolated basilar artery (cumulative concentration-effect curves, isometric tension)
Assay type: cell-based
Settings: in presence of ascorbate, indomethacin, cocaine, ketanserin and prazosin
Protocol: 5-HT1 -like Receptor Screen
In brief, rabbits were killed by overdose with anaesthetic (sodium pentobarbitone). The whole brain was quickly removed and immersed in ice cold modified Kreb's solution and the basilar artery removed with the aid of a dissecting microscope. […] The endothelium was removed by a gentle rubbing of the lumen with a fine metal wire. […] The arteries were then placed under a resting force of 3-4 mN maintained at 37° C. and the solution bubbled with 95% O2 /5% CO2.
After tests for initial reactivity with 90 mM KCl depolarising solution and for lack of acetylcholine-induced relaxation of 5-HT ([…]) precontraction, cumulative concentration-effect curves ([…]) to 5-HT were constructed in the presence of ascorbate […], cocaine […], indomethacin […], ketanserin […] and prazosin […].
Following a 45-60 min wash period, cumulative concentration-effect curves to the test compounds or 5-HT (as a time match control) were constructed in the presence of ascorbate, indomethacin, cocaine, ketanserin and prazosin.

T1 sequence (P49144 whole entry): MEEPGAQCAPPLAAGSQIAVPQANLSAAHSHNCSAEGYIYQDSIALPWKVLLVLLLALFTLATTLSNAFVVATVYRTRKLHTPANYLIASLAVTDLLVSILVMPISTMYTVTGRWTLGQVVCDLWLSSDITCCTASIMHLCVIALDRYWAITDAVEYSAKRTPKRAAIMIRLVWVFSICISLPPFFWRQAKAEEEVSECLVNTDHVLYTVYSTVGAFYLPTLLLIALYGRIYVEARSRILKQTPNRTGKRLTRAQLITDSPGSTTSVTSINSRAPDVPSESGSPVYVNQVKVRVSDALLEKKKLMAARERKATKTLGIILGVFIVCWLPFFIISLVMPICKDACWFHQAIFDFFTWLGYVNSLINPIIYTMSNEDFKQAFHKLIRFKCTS

CN[C@H]1CCc2[nH]c3ccc(C(N)=O)cc3c2C1 [Compound B, S-(-)-6-carboxamido-3-N-methylamino-1,2,3,4-tetrahydrocarbazole]
EC50: > 2000 nM
